How the values were obtained:
human CaSR = target: T1, human CaSR (Homo sapiens, UniProt P41180); assay: CaSR binding assay (radioligand, HEK293 membranes); design: expressed in transfected cells; host or cells: HEK293 cell membranes; conditions: for Ki: membranes of HEK293 cells expressing human CaSR, radio-labeled EXAMPLE 25; for IC50: read-out: IC50s (high affinity for the human calcium sensing receptor and potent antagonist activity)
T1 sequence (P41180 20-1078): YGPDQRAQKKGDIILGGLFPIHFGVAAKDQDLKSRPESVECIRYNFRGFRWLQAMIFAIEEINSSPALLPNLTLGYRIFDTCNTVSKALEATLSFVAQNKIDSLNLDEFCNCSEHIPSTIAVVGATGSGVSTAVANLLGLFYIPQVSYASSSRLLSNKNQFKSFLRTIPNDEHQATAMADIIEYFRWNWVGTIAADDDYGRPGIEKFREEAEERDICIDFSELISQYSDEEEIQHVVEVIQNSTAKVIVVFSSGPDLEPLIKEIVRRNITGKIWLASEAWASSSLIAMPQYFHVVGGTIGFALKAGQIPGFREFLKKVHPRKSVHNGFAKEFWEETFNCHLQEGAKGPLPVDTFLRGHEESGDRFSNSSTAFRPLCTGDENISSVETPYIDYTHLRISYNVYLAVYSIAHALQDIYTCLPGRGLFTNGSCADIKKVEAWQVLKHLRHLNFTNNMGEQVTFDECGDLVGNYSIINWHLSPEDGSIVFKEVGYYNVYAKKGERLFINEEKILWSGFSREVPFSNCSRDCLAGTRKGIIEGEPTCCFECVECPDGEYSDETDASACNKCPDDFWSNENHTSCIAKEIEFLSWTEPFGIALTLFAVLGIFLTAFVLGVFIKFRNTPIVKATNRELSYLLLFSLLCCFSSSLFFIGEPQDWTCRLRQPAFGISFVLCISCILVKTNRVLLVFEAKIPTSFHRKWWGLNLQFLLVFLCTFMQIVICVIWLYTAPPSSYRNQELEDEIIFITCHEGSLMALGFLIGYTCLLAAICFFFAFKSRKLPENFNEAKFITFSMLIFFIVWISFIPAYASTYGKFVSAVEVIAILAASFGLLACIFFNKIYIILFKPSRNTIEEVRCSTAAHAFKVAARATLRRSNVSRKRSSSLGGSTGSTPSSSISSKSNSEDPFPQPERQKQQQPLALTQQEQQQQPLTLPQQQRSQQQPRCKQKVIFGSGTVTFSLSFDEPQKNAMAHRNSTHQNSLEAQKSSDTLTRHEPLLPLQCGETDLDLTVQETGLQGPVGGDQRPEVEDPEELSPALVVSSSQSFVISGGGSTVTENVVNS
Experimental: Procedures for CaSR Binding Assay
Membrane preparations from HEK293 cells expressing the human CaSR were generated. The cells were cultured and then washed twice with 1×PBS. The cells were dissociated by adding 4 ml pre-warmed 0.25% Trypsin-EDTA, and by incubating the flask at RT for 3 minutes. 10 ml media was dispensed over the cell layer surface, and the cells were harvested into a centrifuge tube. The cells were centrifuged at 200×g for 10 minutes. The cell pellet was suspended in 30 ml of membrane preparation buffer and then homogenized on ice twice at 16000 rpm for 10 seconds. Following homogenization, the membrane was collected by centrifuge at 40000×g for 30 minutes at 4° C., washed twice with 30 ml membrane preparation buffer, and centrifuged again at 40000×g for 10 minutes. The membrane pellet was suspended in 30 ml membrane preparation buffer (50 mM Tris, pH7.0, 10 mM MgCl, Proteinase inhibitor (Roche, REF 04693116001), and then homogenized on ice once at 16000 rpm for 10 seconds. The total protein concentration was measured using a BCA kit. The membrane protein concentration was adjusted to 2.4 mg/ml and then diluted with binding buffer (10 mM HEPES, pH7.4, 130 mM NaCl, 0.4 mM CaCl2, 5 mM MgCl2, 1 mM EGTA, 10 mM glucose, 0.1% BSA) to 0.33 μg/μl. The final amount in the binding assay was 20 μg/well. Test compound was serially diluted manually by using BIOHIT multi-channel pipettor in 100% DMSO (10 point, 3-fold dilution of each compound from 5.0 μM in 100% DMSO). 4 μl of serially diluted compound was manually transferred into a second assay microplate that contained 196 μl of binding assay buffer to create the intermediate dilution plate. For background, 20 μl of assay buffer was added to each control well. […] The binding reaction used a 100 μl reaction volume consisting of 10 μl of test compound, 30 μl of diluted radio-labelled compound, and 60 μl of membrane solution (0.33 μg/μl). The reaction mixture was incubated at room temperature for one hour. The Grade GF/C filter plates were presoaked in 0.3% PEI (protect from light) for 60 minutes at room temperature. The plate was then washed three times with ice-cold wash buffer (25 mM Tris-HCl, PH7.4, 130 mM NaCl, 5 mM MgCl2, 0.4 mM CaCl2, 0.1% BSA) prior to filtration of the binding samples. The binding reaction was terminated by rapid filtration of 100 μl binding mixture through the GF/C plate. Plates were then washed 6 times with ice-cold wash buffer. Filter plates were dried with a hair dryer for 20 minutes. 60 μl/well MICROSCINT 20 (a cocktail for microplates) was added to the bottom of sealed filters, then the filters were sealed at the top with tape. Bound radioactivity was counted in a TOPCOUNT scintillation counter. Exemplary compounds bind in the 1-500 nM range.

serum calcium = assay: In vivo pharmacodynamic effects: total serum calcium (arsenazo III); conditions: rat, oral gavage
Experimental: Procedures for In Vivo Pharmacodynamic Effects
The objective of these studies was to assess the effect of compounds on stimulating PTH release and increasing calcium secretion in the rat. Male Sprague-Dawley rats (3-4 months old) were equipped with jugular vein cannulae (JVC) by surgical procedure. The rats were given the compound by oral gavage. Blood was sampled from the JVC at 15 minutes, 30 minutes, 60 minutes, 120 minutes, 240 minutes, 420 minutes, and 24 hrs post compound administration. Plasma was separated and used for a PTH ELISA assay and a calcium concentration assay. After the last blood sampling, the rats were sacrificed under anesthesia by inhalation of CO2. All procedures were conducted in compliance with the Animal Welfare Act, the Guide for the Care and Use of Laboratory Animals and the recommendations of the AVMA Panel on Euthanasia.
Rat plasma samples were used for measuring serum PTH levels: The Rat Intact PTH 1-84 ELISA kit (Immutopics Cat#60-2500) was used according to the manufacturer's instructions. Total serum calcium determination was made using a calcium arsenazo III reagent (Fisher Scientific Cat # Pointe Scientific Calcium (Arsenazo III) Reagents; Mfr. No.: C7529-500; Qty.: 500 mL. Mfr. No.: C7529-500, Part #23666172) according to the manufacturer's instructions. For these experiments, 2 μl of sample was added to 198 μl of reagent, mixed, and read at 650 nm.

For `CSc1ccc(CC(C)(C)NC[C@@H](O)CO[C@H](C)c2ccc(C)c3c2C2[C@H](O3)[C@H]2C(=O)O)cc1F` (stereo partly drawn) [Example 8-24], which Ki (human CaSR) is on record?
The Ki was 29 nM.

What about the IC50 (human CaSR) of the same compound?
Its IC50 is 29 nM.

And the “Maximum Increase in Calcium (mg/dl)” value (serum calcium; at 30 mpk)?
The value was 1 (at mg/dl.

`C[C@@H](OC[C@H](O)CNC(C)(C)Cc1ccc2ccccc2c1)c1cccc2c1[C@@H]1[C@H](O2)[C@H]1C(=O)O` [Example 5-1] was tested. Which Ki (human CaSR) did it give?
Its Ki is 7 nM.

What about the IC50 (human CaSR) of the same compound?
Its IC50 is 7 nM.

What about the “Maximum Increase in Calcium (mg/dl)” value (serum calcium; at 10 mpk) of the same compound?
Its value is 2.3 (at mg/dl.

For `C[C@@H](OC[C@H](O)CNC(C)(C)Cc1ccc2ccccc2c1)c1cccc2c1O[C@@H]1[C@@H](C(=O)O)[C@H]21` [Example 1-1], which Ki (human CaSR) is on record?
Its Ki is 18 nM.

And the IC50 (human CaSR)?
Its IC50 is 18 nM.

What about the “Maximum Increase in Calcium (mg/dl)” value (serum calcium; at 30 mpk) of the same compound?
Its value is 1.5 (at mg/dl.

Reference: US20160311791A1, “NOVEL TRICYCLIC CALCIUM SENSING RECEPTOR ANTOGONISTS FOR THE TREATMENT OF OSTEOPOSOSIS” (MERCK SHARP & DOHME CORP., priority 2013, published 2016)
